The text below walks through data of PubChem BioAssay AID1845211 (Molecular Pharmacology Branch, DTP, NCI, 2023).

The test has as its system NCI-H322M multicellular tumor spheroids, viability (% test/control). Description: Anticancer human tumor NCI-H322M cell line growth inhibition.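 For viability, T/C: spheroids exposed to compound for seven days before readout; 100% = DMSO vehicle control wells.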 The conditions noted are these: for viability, T/C: stronger effect = lower value. In a few lines: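 Complex spheroids of malignant cells with endothelial cells and mesenchymal stem cells; agents alone or combined, from near clinical Cmax (or 10 microM if unknown) down in half-log steps, 0.25% DMSO final.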

Values joined by “and” are separate entries in the source; they are usually repeats but may differ in a detail not shown here. Equal entries are not always repeated.

One may read the IC50 as the concentration needed to halve the response being measured. Broadly, the viability, T/C is the result in the treated group divided by that in the control group, in per cent. As for `[2H]c1nc(C)nc([2H])c1-c1cc(NC[C@@H](C)c2cccc3c(C(=O)NC)ccnc23)ncn1` + CC[C@@]1(O)C(=O)OCc2c1cc1n(c2=O)Cc2cc3c(CN(C)C)c(O)ccc3nc2-1, the IC50 is, setting by setting: (curve of first compound, second compound 0.003 µM) over 10000 nM; (curve of first compound, second compound 0.00949 µM) over 10000 nM; (curve of first compound, second compound 0.03 µM) over 10000 nM; (curve of first compound, second compound 0.0949 µM) over 10000 nM; (curve of first compound, second compound 0.3 µM) over 10000 nM. Moreover, the viability, T/C was 91.8% (second compound 0.003 µM, first compound 0.0316 µM); 128% (second compound 0.003 µM, first compound 0.1 µM); 94.1% (second compound 0.003 µM, first compound 0.316 µM); 84.1% (second compound 0.003 µM, first compound 1 µM); 112% (second compound 0.003 µM, first compound 3.16 µM); 103% (second compound 0.003 µM, first compound 10 µM). For the same compound, the viability, T/C reads like this: (second compound 0.00949 µM, first compound 0.0316 µM) 86.6%; (second compound 0.00949 µM, first compound 0.1 µM) 89.9%; (second compound 0.00949 µM, first compound 0.316 µM) 105%; (second compound 0.00949 µM, first compound 1 µM) 89.9%; (second compound 0.00949 µM, first compound 3.16 µM) 89.8%; (second compound 0.00949 µM, first compound 10 µM) 117%. The viability, T/C (second compound 0.03 µM, first compound 0.0316 µM) is 77.2%; the viability, T/C (second compound 0.03 µM, first compound 0.1 µM) is 75.5%; the viability, T/C (second compound 0.03 µM, first compound 0.316 µM) was 76.7%; the viability, T/C (second compound 0.03 µM, first compound 1 µM) is 82.9%; the viability, T/C (second compound 0.03 µM, first compound 3.16 µM) is 114%; the viability, T/C (second compound 0.03 µM, first compound 10 µM) is 103%. Besides, the viability, T/C (second compound 0.0949 µM, first compound 0.0316 µM) is 80.6%; the viability, T/C (second compound 0.0949 µM, first compound 0.1 µM) is 80.7%; the viability, T/C (second compound 0.0949 µM, first compound 0.316 µM) was 78.3%; the viability, T/C (second compound 0.0949 µM, first compound 1 µM) was 74.5%; the viability, T/C (second compound 0.0949 µM, first compound 3.16 µM) was 72.5%; the viability, T/C (second compound 0.0949 µM, first compound 10 µM) was 85.5%. For the same compound, the viability, T/C (second compound 0.3 µM, first compound 0.0316 µM) was 72.2%; the viability, T/C (second compound 0.3 µM, first compound 0.1 µM) is 59%; the viability, T/C (second compound 0.3 µM, first compound 0.316 µM) was 60.2%; the viability, T/C (second compound 0.3 µM, first compound 1 µM) was 60.3%; the viability, T/C (second compound 0.3 µM, first compound 3.16 µM) was 62.2%; the viability, T/C (second compound 0.3 µM, first compound 10 µM) is 64.9%.
For the compound `CC1COCCN1c1cc(-c2ccnn2C)c2ccnc(-c3ccn[nH]3)c2n1` (centres undefined), the viability, T/C was 53.9% and 67.8% and 58.9% (compound 0.0316 µM); 40.6% and 54% and 49.9% (compound 0.1 µM); 29.4% and 41.8% and 36% (compound 0.316 µM); 29.7% and 35.6% and 33.4% (compound 1 µM); 29.8% and 38.9% and 33.5% (compound 3.16 µM); 32.7% and 44.9% and 37.6% (compound 10 µM). For the same compound, the IC50 (curve of compound) was 43.1 nM and 144 nM and 71.4 nM.
Consider `O=C(c1cc(Cc2n[nH]c(=O)c3ccccc23)ccc1F)N1CCN(C(=O)C2CC2)CC1`, for which the viability, T/C runs as follows: (compound 0.0949 µM) 107% and 88% and 75.1%; (compound 0.3 µM) 98.5% and 83.7% and 107%; (compound 0.949 µM) 118% and 98.6% and 101%; (compound 3 µM) 97.2% and 80.6% and 97.6%; (compound 9.49 µM) 97% and 89.6% and 92.4%; (compound 30 µM) 103% and 87% and 104%. In addition, the IC50 (curve of compound) was over 30000 nM.
Take `CC1COCCN1c1cc(-c2ccnn2C)c2ccnc(-c3ccn[nH]3)c2n1` (centres undefined) + Cn1nnc2c(C(N)=O)ncn2c1=O: the IC50 by setting is: (curve of first compound, second compound 1 µM) 128 nM; (curve of first compound, second compound 3.16 µM) 156 nM; (curve of first compound, second compound 10 µM) 80 nM; (curve of first compound, second compound 31.6 µM) under 31.6 nM; (curve of first compound, second compound 100 µM) under 31.6 nM. For the same compound, the viability, T/C was 66.3% (second compound 1 µM, first compound 0.0316 µM); 54.4% (second compound 1 µM, first compound 0.1 µM); 43.5% (second compound 1 µM, first compound 0.316 µM); 37.4% (second compound 1 µM, first compound 1 µM); 41.5% (second compound 1 µM, first compound 3.16 µM); 48.5% (second compound 1 µM, first compound 10 µM). The viability, T/C was 63% (second compound 3.16 µM, first compound 0.0316 µM); 55.1% (second compound 3.16 µM, first compound 0.1 µM); 42.3% (second compound 3.16 µM, first compound 0.316 µM); 34.1% (second compound 3.16 µM, first compound 1 µM); 37.7% (second compound 3.16 µM, first compound 3.16 µM); 40.8% (second compound 3.16 µM, first compound 10 µM). Besides, the viability, T/C (second compound 10 µM, first compound 0.0316 µM) is 72.2%; the viability, T/C (second compound 10 µM, first compound 0.1 µM) is 44.5%; the viability, T/C (second compound 10 µM, first compound 0.316 µM) is 45.4%; the viability, T/C (second compound 10 µM, first compound 1 µM) is 37.3%; the viability, T/C (second compound 10 µM, first compound 3.16 µM) was 40.6%; the viability, T/C (second compound 10 µM, first compound 10 µM) was 50%. The viability, T/C is, setting by setting: (second compound 31.6 µM, first compound 0.0316 µM) 56.1%; (second compound 31.6 µM, first compound 0.1 µM) 43%; (second compound 31.6 µM, first compound 0.316 µM) 37.1%; (second compound 31.6 µM, first compound 1 µM) 36.6%; (second compound 31.6 µM, first compound 3.16 µM) 35.9%; (second compound 31.6 µM, first compound 10 µM) 41.4%. For the same compound, the viability, T/C is, setting by setting: (second compound 100 µM, first compound 0.0316 µM) 41.1%; (second compound 100 µM, first compound 0.1 µM) 34.8%; (second compound 100 µM, first compound 0.316 µM) 31.7%; (second compound 100 µM, first compound 1 µM) 32%; (second compound 100 µM, first compound 3.16 µM) 35.4%; (second compound 100 µM, first compound 10 µM) 40.6%.
